The values below come from PubChem BioAssay (NCI).

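The compound was tested at five concentrations on cells cultured in 96-well plates, with a 48-hour exposure period. The concentration for 50% growth inhibition is given as GI50. The concentration for full growth arrest is given as TGI.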

Common to all, as to test: NCI tumour cell line growth inhibition, 48 h
Experiment [1] deals with OVCAR-4 ovarian.
Experiment [2] relates to MOLT-4 leukemia.
Experiment [3] relates to SK-MEL-2 melanoma.
Experiment [4] concerns HOP-62 NSCLC.
Experiment [5] deals with SR leukemia.
In experiment [6] the test system is OVCAR-8 ovarian.
Experiment [7] relates to CAKI-1 renal.
Experiment [8] has as its system SN12C renal.
The test system of experiment [9] is OVCAR-5 ovarian.
For experiment [10], the system named is SK-OV-3 ovarian.

In the case of `CCN1C(=O)N(CC)C2C1NN=c1s/c(=C3\C(=O)N(C)c4ccccc43)c(=O)n12` (stereo not given), the GI50 was 8.51 µM in experiment [1]; 1.7 µM in experiment [2]; 3.06 µM in [3]; 2.25 µM in [4]; 0.382 µM in experiment [5]; 2.82 µM in experiment [6]. Moreover, the GI50 is 0.448 µM in experiment [7], 2.89 µM in experiment [8], 3.3 µM in [9] and 6.03 µM in [10]. The TGI in experiment [1], in [2], in experiment [3], in experiment [4], in experiment [5] and in experiment [6] was greater than 100 µM throughout. In addition, the TGI was 97.4 µM in [7], greater than 100 µM in [8], greater than 100 µM in experiment [9] and greater than 100 µM in [10].
Regarding `O=c1[nH]cc(OCC(F)(F)F)c(=O)[nH]1`, the TGI in experiment [1], in [2], in [3], in experiment [4], in experiment [5] and in experiment [6] was greater than 100 µM each time. The TGI in [7], in experiment [8], in experiment [9] and in experiment [10] was greater than 100 µM throughout.
As to `COc1ccccc1-c1c(C)nn2c(NCc3ccccn3)cc(C)nc12`, the GI50 in experiment [1] was 2.32 µM; in experiment [2] it was 7.68 µM; in experiment [3], greater than 50 µM; in [4], 34.7 µM; in [5], 17 µM; in experiment [6], 23.9 µM. Also, the GI50 in experiment [7] was 12.4 µM; in experiment [8] it was 29.9 µM; in experiment [9], greater than 50 µM; in experiment [10], greater than 50 µM. Further, the TGI in experiment [1], in experiment [2], in experiment [3], in experiment [4], in [5] and in experiment [6] was greater than 50 µM each time. Besides, the TGI in [7], in [8], in [9] and in [10] was greater than 50 µM throughout.
Regarding `O=C1c2ccccc2C(=O)C1C(c1ccc([N+](=O)[O-])cc1)C1C(=O)c2ccccc2C1=O`, the TGI in experiment [1] was greater than 100 µM; in experiment [2], greater than 100 µM; in experiment [3], greater than 100 µM; in experiment [4], greater than 100 µM; in experiment [5], greater than 100 µM; in [6], 72.8 µM. Also, the TGI in [7] is 95 µM; in experiment [8] it was greater than 100 µM; in experiment [9], greater than 100 µM; in experiment [10], greater than 100 µM.
For the compound `C=C[C@]1(C)C=C2C(=O)[C@@]3(O)OC[C@@]4(CCCC(C)(C)C43O)C2(O)C(O)C1` (stereo not given in full), the GI50 was 2.32 µM in experiment [1]; 3.09 µM in [2]; 12.4 µM in experiment [3]; 11.4 µM in experiment [4]; 1.97 µM in experiment [5]; 4.03 µM in experiment [6]. In addition, the GI50 in experiment [7] is 2.38 µM; in experiment [8] it was 8.4 µM; in experiment [9], 12.1 µM; in experiment [10] it was 23 µM. In addition, the TGI in experiment [1] amounted to 5.47 µM; in experiment [2], 15.2 µM; in [3], 27.4 µM; in experiment [4], 24.7 µM; in [5], 24.9 µM; in experiment [6] it was 15 µM. For the same compound, the TGI in experiment [7] amounted to 7.71 µM; in experiment [8], 23.2 µM; in experiment [9], 25.9 µM; in [10] it was 69.6 µM.
With `O=C(Nc1cc(Cl)c(Cl)cc1Cl)C(=O)C(C(=O)c1ccc(Cl)c(Cl)c1)C1OC(=O)c2ccccc21` (stereo not given), the TGI in experiment [1] was 77.8 µM; in [2], greater than 100 µM; in experiment [3], 28.6 µM; in [4] it was 25.3 µM; in experiment [5] it was greater than 100 µM; in experiment [6], 28.5 µM. Moreover, the TGI was 46.3 µM in experiment [7], 52.3 µM in [8], 23.6 µM in experiment [9] and greater than 100 µM in experiment [10].
`O=[N+]([O-])c1ccc(CS(=O)Cc2ccccc2)cc1` (stereo not given): the TGI in experiment [1], in experiment [2], in experiment [3], in experiment [4], in [5] and in experiment [6] was greater than 100 µM each time. Also, the TGI in [7], in [8], in experiment [9] and in [10] was greater than 100 µM throughout.
As for `COC(=O)C(Cc1nc2ccc(Cl)cc2[nH]c1=O)C(=O)C(=O)Nc1ccccc1[N+](=O)[O-]` (stereo not given), the TGI in experiment [1], in [2], in experiment [3], in experiment [4], in experiment [5] and in experiment [6] was greater than 100 µM throughout. Moreover, the TGI in [7], in experiment [8], in experiment [9] and in experiment [10] was greater than 100 µM in each case.
Regarding `CCOC(=O)c1c(C)n(Cc2ccc(Cl)cc2Cl)c2c1cc1oc(=O)c(=O)n3c(Cc4ccccc4)nc2c13`, the GI50 in experiment [1] was 4.45 µM; in experiment [2] it was 2.12 µM; in experiment [3], 11.8 µM; in [4], 5.37 µM; in [5], 0.378 µM; in experiment [6] it was 5.22 µM. Moreover, the GI50 in [7] was 2.69 µM; in experiment [8], 2.22 µM; in experiment [9], 2.73 µM; in [10] it was 15.3 µM. The TGI amounted to 16.4 µM in experiment [1]; 4.55 µM in experiment [2]; 32.6 µM in experiment [3]; 18.3 µM in [4]; 2.38 µM in [5]; 25.8 µM in [6]. Moreover, the TGI in experiment [7] is 9.36 µM; in experiment [8], 4.56 µM; in [9], 6.16 µM; in [10] it was 30.7 µM.
Turning to `Nc1nc(Nc2cccc(F)c2)nc2ccccc12`, the GI50 was 22.9 µM in [1]; 14.6 µM in experiment [2]; 25.3 µM in experiment [3]; 17.1 µM in [4]; 24.7 µM in experiment [5]; 31.9 µM in experiment [6]. Also, the GI50 in experiment [7] is 16 µM; in [8], 32.8 µM; in [9], 17.4 µM; in experiment [10], 35.3 µM. Also, the TGI in [1] was greater than 100 µM; in experiment [2], greater than 100 µM; in [3] it was 48.8 µM; in experiment [4], 38.5 µM; in experiment [5], 80.7 µM; in [6], greater than 100 µM. The TGI in [7] was 44.9 µM; in [8], greater than 100 µM; in experiment [9] it was 43.5 µM; in [10] it was greater than 100 µM.
Turning to `CN(C)c1ccc(N=Nc2c([O-])ccc3ccccc23)cc1.[C-]#[O+].[C-]#[O+].[Ir]`, the GI50 was 25.4 µM in [1]; 12.6 µM in [2]; 23.8 µM in experiment [3]; greater than 100 µM in [4]; 17.9 µM in [5]; 25 µM in experiment [6]. For the same compound, the GI50 in experiment [7] was 16.2 µM; in [8], 17 µM; in [9], greater than 42.1 µM; in experiment [10] it was greater than 100 µM. Also, the TGI in experiment [1] was 47.8 µM; in experiment [2], 59.5 µM; in experiment [3], 48.2 µM; in [4], greater than 100 µM; in [5], 57.7 µM; in experiment [6], 65.4 µM. Moreover, the TGI in [7] is 33.5 µM; in experiment [8] it was 34.5 µM; in [9], greater than 58.7 µM; in experiment [10] it was greater than 100 µM.
As for `COC(=O)C(=O)C(C(=O)C=C(C)C)C(=O)C(=O)Nc1cccc(C(C)=O)c1` (stereo not given), the TGI in experiment [1], in experiment [2], in experiment [3], in experiment [4], in experiment [5] and in experiment [6] was greater than 100 µM each time. In addition, the TGI in [7], in experiment [8], in experiment [9] and in [10] was greater than 100 µM each time.
On to `S=c1ssc(Sc2ccccn2)c1Cl`, for which the GI50 in experiment [1] is 5.2 µM; in [2], 2.53 µM; in [3] it was 34.6 µM; in [4], 17.5 µM; in [5], 1.7 µM; in experiment [6] it was 20.3 µM. Besides, the GI50 in experiment [7] was 17.6 µM; in experiment [8] it was 13.2 µM; in experiment [9], 25.6 µM; in experiment [10] it was 23.7 µM. For the same compound, the TGI in experiment [1] is greater than 100 µM; in [2], 5.84 µM; in experiment [3], greater than 100 µM; in experiment [4], 31.3 µM; in experiment [5], 4.64 µM; in experiment [6], 40.8 µM. The TGI in [7] was found to be 31.4 µM; in [8] it was 25.9 µM; in experiment [9], 48.3 µM; in [10], 47.7 µM.
As to `COc1cc(/C=C(/c2ccccc2)[N+](=O)[O-])c(OC)c2c1OCO2`, the GI50 in [1] is 1.74 µM; in [2] it was 1.86 µM; in experiment [3], 1.85 µM; in experiment [4], 2.32 µM; in experiment [5], 0.334 µM; in experiment [6] it was 2.12 µM. Also, the GI50 is 1.76 µM in [7], 1.56 µM in experiment [8], 1.76 µM in [9] and 2.89 µM in experiment [10]. For the same compound, the TGI in experiment [1] worked out at 3.15 µM; in [2], 6.41 µM; in [3], 4 µM; in experiment [4], 5.12 µM; in [5], 2.65 µM; in experiment [6], 6.74 µM. Further, the TGI in experiment [7] is 3.95 µM; in [8], 3.79 µM; in experiment [9] it was 3.58 µM; in experiment [10], 8.29 µM.
In the case of `CCSc1nc(COC(=O)NC)c(COC(=O)NC)n1C`, the TGI in experiment [1] is greater than 84.7 µM; in experiment [2], greater than 100 µM; in experiment [3], greater than 100 µM; in [4], greater than 100 µM; in [5], greater than 100 µM; in experiment [6], greater than 100 µM. Moreover, the TGI was greater than 78.2 µM in experiment [7], greater than 100 µM in [8], greater than 100 µM in experiment [9] and greater than 95 µM in experiment [10].
Consider `CC(=O)Oc1ccccc1C(=O)C1c2cccc(O)c2C(=O)c2c(O)cccc21`, for which the TGI in experiment [1] came to 4.48 µM; in [2] it was 6.01 µM; in [3], 2.9 µM; in [4], 3.4 µM; in [5], 0.967 µM; in experiment [6], 4.34 µM. Also, the TGI in experiment [7] came to 5.39 µM; in [8] it was 12.1 µM; in experiment [9], 6.22 µM; in [10], 1.68 µM.
In the case of `Cn1cc(-c2ccc(CNc3cc(-c4cnc5cc(OCCCN6CCCC6)ccn45)ncn3)cc2)cn1`, the GI50 in experiment [1] is 1.88 µM; in experiment [2], 2.76 µM; in experiment [3], 15.5 µM; in experiment [4] it was 14.4 µM; in experiment [5] it was 2.17 µM; in [6], 1.81 µM. Further, the GI50 in [7] is 1.65 µM; in [8] it was 1.82 µM; in [9], 2.04 µM; in [10], 23 µM. In addition, the TGI was 3.93 µM in experiment [1]; greater than 100 µM in experiment [2]; 30.4 µM in [3]; 31.9 µM in [4]; 7.12 µM in experiment [5]; 3.61 µM in experiment [6]. Further, the TGI in experiment [7] is 3.15 µM; in [8], 3.61 µM; in [9], 4.16 µM; in experiment [10], 43.3 µM.
`COc1ccc2c(c1)nc(N)c1c3cccnc3cn21`: the GI50 in experiment [1] is 0.294 µM; in [2] it was 0.0861 µM; in [3], 0.843 µM; in experiment [4], 0.273 µM; in [5], 0.0339 µM; in experiment [6], 0.0898 µM. In addition, the GI50 in [7] was 0.0407 µM; in [8], 0.382 µM; in experiment [9] it was 0.438 µM; in experiment [10], 0.0508 µM. Also, the TGI in experiment [1] was greater than 100 µM; in experiment [2], greater than 100 µM; in experiment [3], 24.2 µM; in experiment [4], greater than 78.9 µM; in experiment [5], 22.4 µM; in experiment [6], greater than 54.5 µM. In addition, the TGI was 16.3 µM in experiment [7], greater than 100 µM in [8], greater than 100 µM in experiment [9] and greater than 79.3 µM in [10].
